This experiment has as its target T1, human ICE (IL-1β converting enzyme) (Homo sapiens, UniProt P29466).
T1 sequence (P29466 120-297 limits assumed): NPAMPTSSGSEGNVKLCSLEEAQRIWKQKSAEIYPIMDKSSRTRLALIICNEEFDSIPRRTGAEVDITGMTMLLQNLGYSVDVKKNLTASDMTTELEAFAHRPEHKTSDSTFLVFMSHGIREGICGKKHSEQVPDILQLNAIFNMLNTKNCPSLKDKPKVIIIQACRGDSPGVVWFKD
T1 sequence (P29466 317-404 limits assumed): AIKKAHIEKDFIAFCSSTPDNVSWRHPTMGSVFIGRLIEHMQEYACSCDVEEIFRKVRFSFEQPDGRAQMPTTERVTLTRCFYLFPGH
As to the kind of experiment: Assay for IL-1β converting enzyme (ICE) inhibition, fluorogenic substrate Ac-Tyr-Val-Ala-Asp-MCA. The class given is biochemical. As to conditions: human ICE solution, 37° C., fluorescence, read-out: IC50, ICE inhibitory activity. As to the method:
(1) Assay for IL-1β converting enzyme
The reaction mixture contains, for example, 20 mM of HEPES-NaOH pH7.4, 10 mM of KOH, 1.5 mM of MgCl2, 0.1 mM of EDTA and 10% glycerol. Various concentrations of test compounds (50 μl), human ICE solution (50 μl) and various concentrations of substrate (Ac-Tyr-Val-Ala-Asp-MCA) were mixed and incubated at 37° C. Fluorescence intensity was measured at […].
In the aboved example method,
HEPES is 4-(2-Hydroxyethyl)-1-piperazineethane-sulfonic acid,
EDTA is Ethylenediamine tetraacetate, and
Ac-Tyr-Val-Ala-Asp-MCA is Acetyl-L-tyrosyl-L-valyl-L-alanyl-L-asparaginic acid 4-methyl-coumarinyl-7-amide.

Usually pIC50 stands for −log10 of the IC50, conventionally taken in molar units.

pIC50: −log10 of the molar value.

Take `CC(C)[C@H](NC(=O)CCc1ccccc1)C(=O)N[C@@H](C)C(=O)NC(CC(=O)O)C(=O)Cn1nnnc1Cc1c(Cl)cccc1Cl` (stereo partly drawn) [Example 2(1), N-((N-(3-phenylpropionyl)-L-valyl)-L-alanyl)-3-amino-4-oxo-5-(5-(2,6-dichlorophenylmethyl)tetrazol-1-yl)pentanoic acid]: the negative-log IC50 (pIC50) is 7.52.

These data come from patent publication US6376484B1, “Tetrazole compounds and pharmaceutical agents containing such derivative as an active ingredient” (Ono Pharmaceutical Co., Ltd., priority 1995, dated 2002).
